The NIST ThermoML archive (doi:10.1007/s10765-005-5566-6)

Test: xn = mol fraction of the nth substance listed
Details: Gas, Hot wire method

C [methane] + O=C=O
Details	thermal conductivity [W/m/K]
300 K, 724 kPa, x1 = 0.2493	0.02096
300 K, 727 kPa, x1 = 0.4994	0.02533
300 K, 730 kPa, x1 = 0.7496	0.03005
300 K, 1240 kPa, x1 = 0.7496	0.03027
300 K, 1241 kPa, x1 = 0.4994	0.02556
300 K, 1288 kPa, x1 = 0.2493	0.02125
300 K, 1748 kPa, x1 = 0.4994	0.02584
300 K, 1770 kPa, x1 = 0.7496	0.03051
300 K, 1835 kPa, x1 = 0.2493	0.02161
300 K, 2212 kPa, x1 = 0.4994	0.02613
300 K, 2245 kPa, x1 = 0.7496	0.03082
300 K, 2335 kPa, x1 = 0.2493	0.02197
300 K, 2700 kPa, x1 = 0.4994	0.02637
300 K, 2740 kPa, x1 = 0.7496	0.03109
300 K, 2820 kPa, x1 = 0.2493	0.02245
300 K, 3118 kPa, x1 = 0.4994	0.02681
300 K, 3220 kPa, x1 = 0.7496	0.03153
300 K, 3275 kPa, x1 = 0.2493	0.02287
300 K, 3550 kPa, x1 = 0.4994	0.02726
300 K, 3680 kPa, x1 = 0.7496	0.03188
300 K, 3730 kPa, x1 = 0.2493	0.02338
300 K, 4160 kPa, x1 = 0.2493	0.02399
300 K, 4160 kPa, x1 = 0.7496	0.03236
300 K, 4550 kPa, x1 = 0.2493	0.02452
300 K, 4560 kPa, x1 = 0.7496	0.03271
300 K, 4660 kPa, x1 = 0.4994	0.02839
300 K, 4920 kPa, x1 = 0.2493	0.0252
300 K, 5000 kPa, x1 = 0.7496	0.03324
300 K, 5670 kPa, x1 = 0.4994	0.02959
300 K, 6570 kPa, x1 = 0.4994	0.03101
325 K, 793 kPa, x1 = 0.2493	0.0234
325 K, 797 kPa, x1 = 0.7496	0.03345
325 K, 800 kPa, x1 = 0.4994	0.02831
325 K, 1350 kPa, x1 = 0.4994	0.02846
325 K, 1358 kPa, x1 = 0.7496	0.03366
325 K, 1420 kPa, x1 = 0.2493	0.02367
325 K, 1896 kPa, x1 = 0.4994	0.02871
325 K, 1920 kPa, x1 = 0.7496	0.0339
325 K, 2020 kPa, x1 = 0.2493	0.02398
325 K, 2434 kPa, x1 = 0.4994	0.02901
325 K, 2465 kPa, x1 = 0.7496	0.0342
325 K, 2600 kPa, x1 = 0.2493	0.02439
325 K, 2970 kPa, x1 = 0.4994	0.02933
325 K, 3020 kPa, x1 = 0.7496	0.0345
325 K, 3160 kPa, x1 = 0.2493	0.02478
325 K, 3440 kPa, x1 = 0.4994	0.02963
325 K, 3520 kPa, x1 = 0.7496	0.03477
325 K, 3685 kPa, x1 = 0.2493	0.02519
325 K, 3920 kPa, x1 = 0.4994	0.02999
325 K, 4040 kPa, x1 = 0.7496	0.03529
325 K, 4210 kPa, x1 = 0.2493	0.02561
325 K, 4555 kPa, x1 = 0.7496	0.03559
325 K, 4690 kPa, x1 = 0.2493	0.02615
325 K, 5040 kPa, x1 = 0.7496	0.03603
325 K, 5170 kPa, x1 = 0.2493	0.02675
325 K, 5200 kPa, x1 = 0.4994	0.03111
325 K, 5560 kPa, x1 = 0.7496	0.03638
325 K, 5625 kPa, x1 = 0.2493	0.02733
325 K, 6380 kPa, x1 = 0.4994	0.03222
325 K, 7500 kPa, x1 = 0.4994	0.03379
350 K, 860 kPa, x1 = 0.2493	0.026
350 K, 862 kPa, x1 = 0.7496	0.03707
350 K, 865 kPa, x1 = 0.4994	0.03135
350 K, 1310 kPa, x1 = 0.2493	0.02615
350 K, 1464 kPa, x1 = 0.4994	0.03154
350 K, 1605 kPa, x1 = 0.7496	0.03738
350 K, 1750 kPa, x1 = 0.2493	0.02631
350 K, 2054 kPa, x1 = 0.4994	0.03177
350 K, 2180 kPa, x1 = 0.2493	0.02656
350 K, 2340 kPa, x1 = 0.7496	0.03766
350 K, 2610 kPa, x1 = 0.2493	0.02669
350 K, 2660 kPa, x1 = 0.4994	0.03206
350 K, 3020 kPa, x1 = 0.2493	0.02694
350 K, 3035 kPa, x1 = 0.7496	0.03796
350 K, 3190 kPa, x1 = 0.4994	0.03224
350 K, 3440 kPa, x1 = 0.2493	0.02718
350 K, 3740 kPa, x1 = 0.7496	0.03813
350 K, 3760 kPa, x1 = 0.4994	0.03258
350 K, 3840 kPa, x1 = 0.2493	0.02747
350 K, 4220 kPa, x1 = 0.2493	0.02766
350 K, 4324 kPa, x1 = 0.4994	0.03282
350 K, 4410 kPa, x1 = 0.7496	0.03855
350 K, 4600 kPa, x1 = 0.2493	0.02799
350 K, 5140 kPa, x1 = 0.7496	0.039
350 K, 5145 kPa, x1 = 0.4994	0.03347
350 K, 5860 kPa, x1 = 0.7496	0.03958
350 K, 5920 kPa, x1 = 0.4994	0.03401
350 K, 6410 kPa, x1 = 0.7496	0.03989
350 K, 6670 kPa, x1 = 0.4994	0.03477
350 K, 7080 kPa, x1 = 0.7496	0.04053
375 K, 919 kPa, x1 = 0.2493	0.02872
375 K, 919 kPa, x1 = 0.4994	0.03475
375 K, 930 kPa, x1 = 0.7496	0.04098
375 K, 1460 kPa, x1 = 0.2493	0.02883
375 K, 1528 kPa, x1 = 0.7496	0.04104
375 K, 1578 kPa, x1 = 0.4994	0.0348
375 K, 1986 kPa, x1 = 0.2493	0.02895
375 K, 2135 kPa, x1 = 0.7496	0.04117
375 K, 2220 kPa, x1 = 0.4994	0.03492
375 K, 2510 kPa, x1 = 0.2493	0.02913
375 K, 2740 kPa, x1 = 0.7496	0.04129
375 K, 2840 kPa, x1 = 0.4994	0.0352
375 K, 3015 kPa, x1 = 0.2493	0.02945
375 K, 3310 kPa, x1 = 0.7496	0.04145
375 K, 3480 kPa, x1 = 0.4994	0.03545
375 K, 3510 kPa, x1 = 0.2493	0.0297
375 K, 3915 kPa, x1 = 0.7496	0.04181
375 K, 4005 kPa, x1 = 0.2493	0.02993
375 K, 4100 kPa, x1 = 0.4994	0.03561
375 K, 4490 kPa, x1 = 0.7496	0.04204
375 K, 4500 kPa, x1 = 0.2493	0.0302
375 K, 4715 kPa, x1 = 0.4994	0.03598
375 K, 4975 kPa, x1 = 0.2493	0.03051
375 K, 5440 kPa, x1 = 0.2493	0.03075
375 K, 5855 kPa, x1 = 0.4994	0.03682
375 K, 6910 kPa, x1 = 0.7496	0.04355
375 K, 6930 kPa, x1 = 0.4994	0.03739
375 K, 8000 kPa, x1 = 0.4994	0.03823
375 K, 9330 kPa, x1 = 0.7496	0.04538
375 K, 11600 kPa, x1 = 0.7496	0.04722
400 K, 983 kPa, x1 = 0.2493	0.03152
400 K, 986 kPa, x1 = 0.4994	0.03807
400 K, 993 kPa, x1 = 0.7496	0.04503
400 K, 1410 kPa, x1 = 0.2493	0.0316
400 K, 1690 kPa, x1 = 0.4994	0.03812
400 K, 1700 kPa, x1 = 0.7496	0.04501
400 K, 1820 kPa, x1 = 0.2493	0.03172
400 K, 2230 kPa, x1 = 0.2493	0.03183
400 K, 2378 kPa, x1 = 0.4994	0.03826
400 K, 2393 kPa, x1 = 0.7496	0.04519
400 K, 2635 kPa, x1 = 0.2493	0.03187
400 K, 3040 kPa, x1 = 0.2493	0.03201
400 K, 3061 kPa, x1 = 0.4994	0.03844
400 K, 3115 kPa, x1 = 0.7496	0.04526
400 K, 3435 kPa, x1 = 0.2493	0.03228
400 K, 3740 kPa, x1 = 0.4994	0.03866
400 K, 3770 kPa, x1 = 0.7496	0.04535
400 K, 3850 kPa, x1 = 0.2493	0.03241
400 K, 4240 kPa, x1 = 0.2493	0.03258
400 K, 4390 kPa, x1 = 0.4994	0.03887
400 K, 4460 kPa, x1 = 0.7496	0.04578
400 K, 4615 kPa, x1 = 0.2493	0.03271
400 K, 5060 kPa, x1 = 0.4994	0.03918
400 K, 5140 kPa, x1 = 0.7496	0.04598
400 K, 5667 kPa, x1 = 0.4994	0.03961
400 K, 6180 kPa, x1 = 0.4994	0.0398
400 K, 6670 kPa, x1 = 0.7496	0.04688
400 K, 6710 kPa, x1 = 0.4994	0.04014
400 K, 8110 kPa, x1 = 0.7496	0.04756
400 K, 9545 kPa, x1 = 0.7496	0.04861
425 K, 1048 kPa, x1 = 0.2493	0.03418
425 K, 1050 kPa, x1 = 0.4994	0.04164
425 K, 1050 kPa, x1 = 0.7496	0.04889
425 K, 1530 kPa, x1 = 0.2493	0.03411
425 K, 1799 kPa, x1 = 0.4994	0.04146
425 K, 1810 kPa, x1 = 0.7496	0.04908
425 K, 1938 kPa, x1 = 0.2493	0.03436
425 K, 2390 kPa, x1 = 0.2493	0.03434
425 K, 2554 kPa, x1 = 0.4994	0.04156
425 K, 2558 kPa, x1 = 0.7496	0.04898
425 K, 2810 kPa, x1 = 0.2493	0.03448
425 K, 3260 kPa, x1 = 0.2493	0.03452
425 K, 3260 kPa, x1 = 0.4994	0.04176
425 K, 3300 kPa, x1 = 0.7496	0.04919
425 K, 3690 kPa, x1 = 0.2493	0.03472
425 K, 4000 kPa, x1 = 0.4994	0.04192
425 K, 4050 kPa, x1 = 0.7496	0.04919
425 K, 4120 kPa, x1 = 0.2493	0.0349
425 K, 4540 kPa, x1 = 0.2493	0.03506
425 K, 4730 kPa, x1 = 0.4994	0.04207
425 K, 4800 kPa, x1 = 0.7496	0.0498
425 K, 4960 kPa, x1 = 0.2493	0.0353
425 K, 5460 kPa, x1 = 0.4994	0.04245
425 K, 5520 kPa, x1 = 0.7496	0.05001
425 K, 6410 kPa, x1 = 0.4994	0.04284
425 K, 7380 kPa, x1 = 0.4994	0.04335
425 K, 7670 kPa, x1 = 0.7496	0.05089
425 K, 8310 kPa, x1 = 0.4994	0.04385
425 K, 9820 kPa, x1 = 0.7496	0.05188
425 K, 11970 kPa, x1 = 0.7496	0.05348
